Values after ≈ are worked out from the molar mass of the structure shown.
Legend:
Type in all cases: cell-based, human
[1] = test system: SW948; test: cell proliferation assay, cross-resistance to topoisomerase I and II inhibitors; conditions: SW948 parental, mean ± SD, 2-4 independent assays; for IC50: Homo sapiens, read-out: Sensitivity expressed as IC50
Source text: (§1) Drug resistance to other topoisomerase I and II inhibitors was examined by determining the IC50 dose of each drug using a cell proliferation assay as shown in Table 3.

[2] = test system: SW948CPTH; test: as above; conditions: for change in resistance of SW948CPTH cells compared to the parental cell line SW948: IC50 by cell proliferation assay (Table 3); for IC50: Homo sapiens, read-out: Sensitivity expressed as IC50
Source text: as §1

[3] = test system: SW948CPTH cells; test: intracellular pH (BCECF fluorescence)
Procedure: 12. […] Cells were plated on glass coverslips and cultured overnight.

[4] = test system: SW948CPTH cells; test: change of CPT-11 IC50 (clonogenic assay) by verapamil, amiloride or EIPA
Procedure: (§2) 10. […] Cells were washed, trypsinized, and counted. Cell pellets were lysed with water and sonicated. […] Results were generated from three independent experiments. […] Data are expressed as mean±SD. […] Data are the mean±SD of two experiments done in triplicate.
12. […] Cells were plated on glass coverslips and cultured overnight. Intracellular pH was measured with a fluorescence spectrophotometer after cells were loaded with the pH-sensitive fluorescence dye, BCECF. The data represent the mean±SD of 60 individual cells. […] After 24 h the drugs were removed, cells washed with PBS and drug-free culture medium added to the cell cultures. Data represent the mean±SD from three assays done in triplicate with SW948CPTH cells and two assays done in triplicate for SW948CPTL cells.

[5] = test system: SW948CPTL; test: cell proliferation assay, cross-resistance to topoisomerase I and II inhibitors
Source text: as §1

[6] = test system: SW948CPTH cell line; test: SN38 IC50 determination
[7] = test system: SW948 cell line; test: SN38 IC50 determination
[8] = test system: SW948CPTL cell line; test: SN38 IC50 determination
[9] = test system: SW948CPTL cells; test: intracellular accumulation of CPT-11 (HPLC), effect of verapamil; conditions: SW948CPTL
Source text: as §2
(§3) Additionally, multidrug resistance can be evaluated by measuring the expression level of p-glycoprotein (p-gp) (Juliano et al Biochim Biophys Acta 11:152-162, 1976) and breast cancer resistant protein (BCRP) (Doyle et al Proc Natl Acad Sci U S A 95:15665-15670, 1998) in SW948 and the resistant SW948 cell lines (SW948CPTH and SW948CPTL). It is understood that the disclosed methods can also be used with other cell lines including other colon cancer cell lines. For example, the disclosed methods can be used with LS174T, WiDr, HT-29, SW403, DLD-1, SW480, SNU-C1, Caco-2, and COLO 205 cell lines.

[10] = test system: SW948CPTH cells; test: as above; conditions: SW948CPTH; 10 μM verapamil with CPT-11 160 μM, 2 hours
Source text: as §2, §3

**Q.** With `CC[C@@]1(O)C(=O)OCc2c1cc1n(c2=O)Cc2cc3cc(O)ccc3nc2-1` [10-OH-CPT] as the compound, how does the “Sensitivity expressed as IC50” value [1] read?
**A.** 0.4 ± 0.3 µg/mL

**Q.** And the “change in resistance of SW948CPTH cells compared to the parental cell line SW948” value (shortened to “change in resistance of SW948CPTH cells”) [2]?
**A.** increased resistance

**Q.** What about the “Sensitivity expressed as IC50” value ([2]; SW948CPTH treated with 20 μg/ml CPT-11 for 62 days, then >22 days without CPT-11, mean ± SD) of the same compound?
**A.** 2.1 ± 1.0 µg/mL

**Q.** What does the source list for `N=C(N)NC(=O)c1nc(Cl)c(N)nc1N` [Amiloride]?
**A.** effect on intracellular pH [3]: lowered; intracellular pH in the presence of amiloride ([3]; from about 6.98 without amiloride (FIG. 8A)): about 6.85; effect on resistance of the cells to CPT-11 ([4]; SW948CPTH, amiloride 300 μM with CPT-11 24 h (FIG. 8B)): decreased the resistance

**Q.** For `CC[C@@]1(O)C(=O)OCc2c1cc1n(c2=O)Cc2cc3ccccc3nc2-1` [CPT], which IC50 [1] is on record?
**A.** 0.1 ± 0.1 µg/mL (≈ 0.287 µM)

**Q.** And the IC50 [2]?
**A.** 0.6 ± 0.6 µg/mL (≈ 1.72 µM)

**Q.** And the “change in resistance of SW948CPTH cells” value [2]?
**A.** increased resistance

**Q.** Which “effect on resistance of cells to CPT-11” value ([4]; EIPA 3 or 10 μM with CPT-11 24 h, FIG. 8B covers SW948CPTH and SW948CPTL) does the source give for `CCN(c1nc(N)c(C(=O)N=C(N)N)nc1Cl)C(C)C` [EIPA, 5-(N-ethyl-N-isopropyl)amiloride] here?
**A.** decreased the resistance

**Q.** With `COc1cc([C@@H]2c3cc4c(cc3[C@@H](O[C@@H]3O[C@@H]5CO[C@@H](C)O[C@H]5[C@H](O)[C@H]3O)[C@H]3COC(=O)[C@H]23)OCO4)cc(OC)c1O` [Etoposide] as the compound, how does the IC50 ([5]; Homo sapiens, read-out: Sensitivity expressed as IC50) read?
**A.** 1.8 ± 0.3 µg/mL (≈ 3.06 µM)

**Q.** And the “increase in resistance by SW948CPTL cells compared to the parental cell line SW948” value ([5]; IC50 by cell proliferation assay (Table 3))?
**A.** 2 fold

**Q.** And the IC50 [1]?
**A.** 0.9 ± 0.1 µg/mL (≈ 1.53 µM)

**Q.** What about the IC50 [2] of the same compound?
**A.** 0.9 ± 0.1 µg/mL (≈ 1.53 µM)

**Q.** And the “change in resistance of SW948CPTH cells” value [2]?
**A.** no change in resistance

**Q.** Which results are given for `CC1(C)CCC2=C(O1)c1ccccc1C(=O)C2=O` [Lapachone]?
**A.** IC50 [1]: 1.1 ± 0.2 µg/mL (≈ 4.54 µM); IC50 [2]: 0.8 ± 0.2 µg/mL (≈ 3.3 µM); change in resistance of SW948CPTH cells compared to the parental cell line SW948 [2]: No change

**Q.** With `CCc1c2c(nc3ccc(O)cc13)-c1cc3c(c(=O)n1C2)COC(=O)[C@]3(O)CC` [SN38] as the compound, how does the “SN38 IC50” value [6] read?
**A.** 1.5 ± 0.1 µg/mL

**Q.** And the “SN38 IC50” value [7]?
**A.** 0.2 ± 0.01 µg/mL

**Q.** What about the “SN38 IC50” value [8] of the same compound?
**A.** 1.8 ± 0.2 µg/mL

**Q.** What does the source list for `COc1ccc(CCN(C)CCCC(C#N)(c2ccc(OC)c(OC)c2)C(C)C)cc1OC` (stereo not drawn) [Verapamil]?
**A.** intracellular concentration of CPT-11 with verapamil relative to SW948 parent cells ([9]; 10 μM verapamil): 2.4 times; effect on intracellular concentration of CPT-11 ([9]; 10 μM verapamil with CPT-11 160 μM, 2 hours): increased; effect on intracellular concentration of CPT-11 [10]: increased the intracellular concentration of CPT-11 to a level similar to the SW948 parent cells

Reference: patent US20070148710A1, “Cpt resistant cell line” (priority 2003, published 2007)
